The values below come from patent US20030036103A1, “Methods and compositions for diagnosis and treatment of vascular conditions” (priority 2001, published 2003).

Type in all cases: cell-based
The subject of test [1] is human microvascular endothelial cells (HMVEC). Briefly: TNFα-induced heparanase secretion by endothelial cells with signaling inhibitors (immunoblot). The conditions noted are these: HMVEC incubated with TNFα and inhibitor for 16 h; wortmannin 0.1 and 0.5 μM, Ly294002 10 and 50 μM, SN50 10 μM, FPT inhibitor III 100 μM, PD98059 5 μM, SB203580 650 nM, ZM336372 200 nM, caspase inhibitor III 10 μM; FIG. 5. As for the experimental part: Human microvascular endothelial cells (HMVEC) were grown in 48-well plates (˜90% confluency). To induce heparanase activity, culture media was replaced with 200 μl Dulbecco's modified Eagle's medium (DMEM) complemented with 1% bovine serum albumin (BSA), 100 ng biotinylated HS and TNFα with or without (FIG. 5A) P13 kinase inhibitors (wortmannin, 0.1 μM and 0.5 μM, or Ly294002, 10 μM and 50 μM), (FIG. 5B) NFκB inhibitor (SN50, 10 μM), several MAP kinase inhibitors (FIG. 5C)—either 100 μM FPT inhibitor III (FPT, inhibits Ras processing in cells), 5 μM MAP kinase (MEK), inhibitor PD98059 (PD), 650 nM p38 kinase inhibitor SB203580 (SB), 200 nM c-Raf inhibitor ZM336372 (ZM); or an inhibitor cocktail (Cl) that contains all of the four inhibitors; or broad-spectrum caspase inhibitor III (Casp-I, 10 μM) (FIG. 5D). The cells were incubated with TNFα and the inhibitors for 16 h. The culture media was collected and the secreted proteins were analyzed by SDS-PAGE and heparanase protein was detected by immunoblotting using polyclonal anti-human heparanase antibody.
A general note: A western blot detects proteins with antibodies after separation by electrophoresis.

Test [2] has the same test system. Description: Induction of endothelial heparanase protein by cytokines (immunoblot). The conditions noted are these: TNFα. As for the experimental part: Experiments were done on human microvascular endothelial cells (HMVEC) grown in 48-well plates (˜90% confluency). To induce heparanase activity, culture media was replaced with 200 μl Dulbecco's modified Eagle's medium (DMEM) complemented with 1% bovine serum albumin (BSA) and 100 ng biotinylated HS with or without stimulants (5 ng/ml TGFα, 1 ng/ml IL 1β, or 200 ng/ml VEGF). Cells were incubated in a cell culture incubator for 16-18 hours and the entire 200 μmedia was added to a streptavidin-coated plate and followed by standard color development assay as described in Example 2. The secreted proteins were analyzed by SDS-PAGE and heparanase protein was detected by immunoblotting using polyclonal anti-human heparanase antibody.
Human microvascular endothelial cells (HMVEC) were grown in 48-well plates (˜90% confluency). To induce heparanase activity, culture media was replaced with 200 μl Dulbecco's modified Eagle's medium (DMEM) complemented with 1% bovine serum albumin (BSA) and 100 ng biotinylated HS with 0, 0.02, 1.5 and 5 ng/ml of TNFα. The secreted heparanase was detected by immunoblotting the culture media with anti-human heparanase antibody.

For a further test, the system named is endothelial cells. Briefly: Heparanase expression in endothelial cells induced by lysolecithin.

Turning to `COc1cccc(-c2cc(=O)c3ccccc3o2)c1N` [PD98059], the “inhibition of TNFα-induced heparanase secretion” value in test [1] is recorded as “do not inhibit”. Same read-out and setting: the same measure for `C[S+]([O-])c1ccc(-c2nc(-c3ccncc3)c(-c3ccc(F)cc3)[nH]2)cc1` (stereo not drawn) [SB203580]: “do not inhibit”; for `Cc1ccc(NC(=O)c2cccc(N(C)C)c2)cc1NC(=O)c1ccc(O)cc1` [ZM336372]: “do not inhibit”; for `COC(=O)CC(NC(=O)OC(C)(C)C)C(=O)CF` (stereo not drawn) [caspase inhibitor III]: “blocked heparanase secretion”.

For the molecule TNFα, in test [2], the “induction of heparanase in endothelial cells” value is “induces heparanase”. In the case of lysolecithin, the “induction of heparanase expression in endothelial cells” value in the test on endothelial cells is “induces heparanase expression”.
